Experimental data taken from patent US20090053168A1, “TREATMENTS OF B-CELL PROLIFERATIVE DISORDERS” (priority 2007, published 2009).
Where two headings read alike, the source gives them in different places.

Key:
[1] = tested on: Farage (non-Hodgkin's B cell lymphoma) cells; experiment: Anti-proliferation assay (ATPLite, 72 h), Farage; assay type: cell-based; details: x dexamethasone
MM.1S cells [2] = experiment: Anti-proliferation assay (ATPLite, 72 h), MM.1S; details: for activity and synergy in antiproliferation assays: RPMI-8226, H929, MM.1S and MM.1R MM cell lines; for synergy score: in combination with CGS-21680; for synergy score / percent inhibition of cell proliferation: MM.1S; for IC50: read-out: IC50 (no IL-6); for percent inhibition of cell proliferation: DEX 0 nM
[3] = tested on: GA-10 (Burkitt's lymphoma) cells; experiment: Anti-proliferation assay (ATPLite, 72 h), GA-10; assay type: cell-based; details: x dexamethasone
[4] = tested on: mantle cell lymphoma cell line Mino; experiment: Anti-proliferation assay (ATPLite, 72 h), Mino; assay type: cell-based, human
Procedure: (§1) All of the cell lines were cultured in RPMI-1640 media supplemented with 10% FBS except OCI Ly10 cells (IMDM media supplemented with 20% human serum). The ANBL-6 cell line culture media also contained 10 ng/ml IL-6. MM.1S, MM.1R, SU-DHL6, Karpas 422, and OCI ly10 cells were provided by the Dana Farber Cancer Institute. ANBL-6 cells were provided by Bob Orlowsli (M.D. Anderson Cancer Research Center). H929, RPMI-8226, GA-10, Farage, Mino, JVM-13, Pfeiffer, Toledo, and Kusami-1 cells were from ATCC (Cat #'s CCL-155, CRL-9068, CRL-2392 CRL-2630, CRL-3000, CRL-3003, CRL-2632, CRL-2631, and CRL-2724 respectively). MOLP-8, OPM2, EJM, and KSM-12-PE cells were from DSMZ.
(§2) Compounds were prepared in DMSO at 1000× the highest desired concentration. Master plates were generated consisting of serially diluted compounds in 2- or 3-fold dilutions in 384-well format. For single agent dose response curves, the master plates consisted of 9 individual compounds at 12 concentrations in 2- or 3-fold dilutions. For combination matrices, master plates consisted of individual compounds at 6 or 9 concentrations at 2- or 3-fold dilutions.
(§3) The average untreated well value (avg. untreated wells) is the arithmetic mean of 40 wells from the same assay plate treated with vehicle alone. Negative inhibition values result from local variations in treated wells as compared to untreated wells.
(§4) The uncertainty of each fitted parameter was estimated from the range over which the change in reduced chi-squared was less than one, or less than minimum reduced chi-squared if that minimum exceeded one, to allow for underestimated σI errors.
(§5) Single agent curve data were used to define a dilution series for each compound to, be used for combination screening in a 6×6 matrix format. […] For compounds with no detectable single agent activity, a dilution factor of 4 was used, starting from the highest achievable concentration.
(§6) The Loewe additivity model was used to quantify combination effects. Combinations were ranked initially by Additivity Excess Volume, which is defined as ADD Volume=ΣCX, CY(Idata−ILoewe). where ILoewe(CX,CY) is the inhibition that satisfies (CX/ECX)+(CY/ECY)=1, and ECX,Y are the effective concentrations at ILoewe for the single agent curves. A “Synergy Score” was also used, where the Synergy Score S=log fX log fY ΣIdata (Idata−ILoewe), summed over all non-single-agent concentration pairs, and where log fX,Y is the natural logarithm of the dilution factors used for each single agent.

OPM2 cells = experiment: Anti-proliferation assay (ATPLite, 72 h), OPM2; assay type: cell-based, human; details: for synergy score: in combination with CGS-21680, OPM-8
EJM cells = experiment: Anti-proliferation assay (ATPLite, 72 h), EJM; assay type: cell-based; details: in combination with CGS-21680
KSM-12-PE cells = experiment: Anti-proliferation assay (ATPLite, 72 h), KSM-12-PE; assay type: cell-based; details: in combination with CGS-21680; KSM-12-PE
MOLP-8 cells = experiment: Anti-proliferation assay (ATPLite, 72 h), MOLP-8; assay type: cell-based; details: in combination with CGS-21680
ANBL-6 cells = experiment: Anti-proliferation assay (ATPLite, 72 h), ANBL-6; assay type: cell-based; details: in combination with CGS-21680
[5] = tested on: mantle cell lymphoma cell line JVM-13; experiment: Anti-proliferation assay (ATPLite, 72 h), JVM-13; assay type: cell-based, human
Procedure: as §1, §2, §3, §4, §5, §6

RPMI-8226 cells = experiment: Anti-proliferation assay (ATPLite, 72 h), RPMI-8226; assay type: cell-based; details: combination with dexamethasone; Loewe-based Synergy Score; 72 h
MM.1S cells [6] = tested on: MM.1S cells
H929 cells = experiment: Anti-proliferation assay (ATPLite, 72 h), H929; assay type: cell-based; details: combination with dexamethasone; Loewe-based Synergy Score; 72 h
[7] = Homo sapiens, MM1.S, read-out: percent inhibition of cell proliferation

## CNC(=O)[C@H]1O[C@@H](n2cnc3c(NCc4cccc(I)c4)ncnc32)[C@H](O)[C@@H]1O [IB-MECA, N^6-(3-iodobenzyl)-5′-N-methylcarboxamidoadenosine]
[1]
  synergy score: 2.91
MM.1S cells [2]
  activity and synergy in antiproliferation assays: active and synergistic
[3]
  synergy score: 2.23

## CC(/C=C/C(=O)NO)=C\[C@@H](C)C(=O)c1ccc(N(C)C)cc1 [Trichostatin A]
[4]; Trichostatin A 0.0063 μM alone
  percent inhibition of cell proliferation: 24%
[4]; Trichostatin A 0.025 μM alone
  percent inhibition of cell proliferation: 78%
[4]; Trichostatin A 0.05 μM alone
  percent inhibition of cell proliferation: 100%
[4]; Trichostatin A 0.1 μM alone
  percent inhibition of cell proliferation: 100%
OPM2 cells; Trichostatin A 0.0063 μM alone
  percent inhibition of cell proliferation: 13%
OPM2 cells; Trichostatin A 0.025 μM alone
  percent inhibition of cell proliferation: 48%
OPM2 cells; Trichostatin A 0.05 μM alone
  percent inhibition of cell proliferation: 76%
OPM2 cells; Trichostatin A 0.1 μM alone
  percent inhibition of cell proliferation: 99%

## COc1cccc2c1C(=O)c1c(O)c3c(c(O)c1C2=O)C[C@@](O)(C(=O)CO)C[C@@H]3O[C@H]1C[C@H](N)[C@H](O)[C@H](C)O1 [doxorubicin]
MM.1S cells [2]
  synergy score: 1.65
EJM cells
  synergy score: 1.21
KSM-12-PE cells
  synergy score: 0.81
MOLP-8 cells
  synergy score: 1.16
OPM2 cells
  synergy score: 0.46
ANBL-6 cells
  synergy score: 2.54

## Nc1cccc2c1CN(C1CCC(=O)NC1=O)C2=O (stereo not shown) [lenalidomide]
MM.1S cells [2]
  synergy score: 4.87
EJM cells
  synergy score: 0.32
KSM-12-PE cells
  synergy score: 0.83
MOLP-8 cells
  synergy score: 1.65
OPM2 cells
  synergy score: 1.36
ANBL-6 cells
  synergy score: 1.45

## COC1=C2C[C@@H](C)C[C@H](OC)[C@H](O)[C@@H](C)/C=C(\C)[C@H](OC(N)=O)[C@@H](OC)/C=C\C=C(/C)C(=O)NC(=CC1=O)C2=O [Geldanomycin]
[5]; Geldanomycin 0.0064 μM alone
  percent inhibition of cell proliferation: −5.8%
[5]; Geldanomycin 0.019 μM alone
  percent inhibition of cell proliferation: −7.8%
[5]; Geldanomycin 0.057 μM alone
  percent inhibition of cell proliferation: 7.6%
[5]; Geldanomycin 0.17 μM alone
  percent inhibition of cell proliferation: 12%
[5]; Geldanomycin 0.52 μM alone
  percent inhibition of cell proliferation: 19%
[4]; Geldanomycin 0.0064 μM alone
  percent inhibition of cell proliferation: 4.7%
[4]; Geldanomycin 0.019 μM alone
  percent inhibition of cell proliferation: 4.3%
[4]; Geldanomycin 0.057 μM alone
  percent inhibition of cell proliferation: 6.7%
[4]; Geldanomycin 0.17 μM alone
  percent inhibition of cell proliferation: 14%
[4]; Geldanomycin 0.52 μM alone
  percent inhibition of cell proliferation: 27%

## NCCNC(=O)Cc1ccc(NC(=O)Cc2ccc(Nc3ncnc4c3ncn4[C@@H]3O[C@H](CO)[C@@H](O)[C@H]3O)cc2)cc1 [ADAC, N-(4-(2-((4-(2-((2-aminoethyl)amino)-2-oxoethyl)phenyl)amino)-2-oxoethyl)phenyl)-Adenosine]
[1]
  synergy score: 2.28
MM.1S cells [2]; Homo sapiens, MM1.S
  IC50: 623 nM
MM.1S cells [2]; [7]
  inhibition at 1.17 µM: 80%
  inhibition at 3.51 µM: 75%
  inhibition at 10.5 µM: 82%
  inhibition at 31.6 µM: 82%
MM.1S cells [2]
  activity and synergy in antiproliferation assays: active and synergistic
[3]
  synergy score: 2.43

## CNC(=O)[C@H]1O[C@@H](n2cnc3c(NCc4cccc(I)c4)nc(Cl)nc32)[C@H](O)[C@@H]1O [Chloro-IB-MECA, 2-chloro-N^6-(3-iodobenzyl)-5′-N-methylcarboxamidoadenosine]
[1]
  synergy score: 3.17
RPMI-8226 cells
  Synergy score with dexamethasone, RPMI-8226: 5.61
MM.1S cells [2]; Cl-IB-MECA 0.352 nM, 72 h
  percent inhibition of cell proliferation: 16%
MM.1S cells [2]; Cl-IB-MECA 1.06 nM, 72 h
  percent inhibition of cell proliferation: 5.9%
MM.1S cells [2]; Cl-IB-MECA 3.16 nM, 72 h
  percent inhibition of cell proliferation: 6.3%
MM.1S cells [2]; Cl-IB-MECA 9.49 nM, 72 h
  percent inhibition of cell proliferation: 9.1%
MM.1S cells [2]; Cl-IB-MECA 28.5 nM, 72 h
  percent inhibition of cell proliferation: −0.6%
MM.1S cells [2]; Cl-IB-MECA 85.4 nM, 72 h
  percent inhibition of cell proliferation: 6.3%
MM.1S cells [2]; Cl-IB-MECA 256 nM, 72 h
  percent inhibition of cell proliferation: 27%
MM.1S cells [2]; Cl-IB-MECA 769 nM, 72 h
  percent inhibition of cell proliferation: 71%
MM.1S cells [2]; Homo sapiens, MM1.S
  IC50: 838 nM
MM.1S cells [2]
  activity and synergy in antiproliferation assays: active and synergistic
MM.1S cells [2]; combination with dexamethasone, Loewe-based Synergy Score, 72 h
  Synergy score with dexamethasone, MM.1S: 8.37
MM.1S cells [6]; Cl-IB-MECA 0.19 μM, 78 nM SCH58261
  Percent inhibition of cell growth by Chloro-IB-MECA: 5.2%
MM.1S cells [6]; Cl-IB-MECA 0.19 μM, 87 nM MRS1523
  Percent inhibition of cell growth by Chloro-IB-MECA: 19%
MM.1S cells [6]; Cl-IB-MECA 0.19 μM, 89 nM DPCPX
  Percent inhibition of cell growth by Chloro-IB-MECA: 7.4%
MM.1S cells [6]; Cl-IB-MECA 0.19 μM, 89 nM MRS1754
  Percent inhibition of cell growth by Chloro-IB-MECA: 25%
MM.1S cells [6]; Cl-IB-MECA 0.19 μM, 150 nM SCH58261
  Percent inhibition of cell growth by Chloro-IB-MECA: −3.8%
MM.1S cells [6]; Cl-IB-MECA 0.19 μM, 170 nM MRS1523
  Percent inhibition of cell growth by Chloro-IB-MECA: 26%
MM.1S cells [6]; Cl-IB-MECA 0.19 μM, 174 nM DPCPX
  Percent inhibition of cell growth by Chloro-IB-MECA: 12%
MM.1S cells [6]; Cl-IB-MECA 0.19 μM, 175 nM MRS1754
  Percent inhibition of cell growth by Chloro-IB-MECA: 21%
MM.1S cells [6]; Cl-IB-MECA 0.19 μM, no antagonist
  Percent inhibition of cell growth by Chloro-IB-MECA: 20%
MM.1S cells [6]; Cl-IB-MECA 1.5 μM, 78 nM SCH58261
  Percent inhibition of cell growth by Chloro-IB-MECA: 8.1%
MM.1S cells [6]; Cl-IB-MECA 1.5 μM, 87 nM MRS1523
  Percent inhibition of cell growth by Chloro-IB-MECA: 54%
MM.1S cells [6]; Cl-IB-MECA 1.5 μM, 89 nM DPCPX
  Percent inhibition of cell growth by Chloro-IB-MECA: 47%
MM.1S cells [6]; Cl-IB-MECA 1.5 μM, 89 nM MRS1754
  Percent inhibition of cell growth by Chloro-IB-MECA: 50%
MM.1S cells [6]; Cl-IB-MECA 1.5 μM, 150 nM SCH58261
  Percent inhibition of cell growth by Chloro-IB-MECA: 4.3%
MM.1S cells [6]; Cl-IB-MECA 1.5 μM, 170 nM MRS1523
  Percent inhibition of cell growth by Chloro-IB-MECA: 61%
MM.1S cells [6]; Cl-IB-MECA 1.5 μM, 174 nM DPCPX
  Percent inhibition of cell growth by Chloro-IB-MECA: 46%
MM.1S cells [6]; Cl-IB-MECA 1.5 μM, 175 nM MRS1754
  Percent inhibition of cell growth by Chloro-IB-MECA: 45%
MM.1S cells [6]; Cl-IB-MECA 1.5 μM, no antagonist
  Percent inhibition of cell growth by Chloro-IB-MECA: 61%
MM.1S cells [6]; Cl-IB-MECA 3.1 μM, 78 nM SCH58261
  Percent inhibition of cell growth by Chloro-IB-MECA: 28%
MM.1S cells [6]; Cl-IB-MECA 3.1 μM, 87 nM MRS1523
  Percent inhibition of cell growth by Chloro-IB-MECA: 69%
MM.1S cells [6]; Cl-IB-MECA 3.1 μM, 89 nM DPCPX
  Percent inhibition of cell growth by Chloro-IB-MECA: 64%
MM.1S cells [6]; Cl-IB-MECA 3.1 μM, 89 nM MRS1754
  Percent inhibition of cell growth by Chloro-IB-MECA: 71%
MM.1S cells [6]; Cl-IB-MECA 3.1 μM, 150 nM SCH58261
  Percent inhibition of cell growth by Chloro-IB-MECA: 16%
MM.1S cells [6]; Cl-IB-MECA 3.1 μM, 170 nM MRS1523
  Percent inhibition of cell growth by Chloro-IB-MECA: 74%
MM.1S cells [6]; Cl-IB-MECA 3.1 μM, 174 nM DPCPX
  Percent inhibition of cell growth by Chloro-IB-MECA: 60%
MM.1S cells [6]; Cl-IB-MECA 3.1 μM, 175 nM MRS1754
  Percent inhibition of cell growth by Chloro-IB-MECA: 72%
MM.1S cells [6]; Cl-IB-MECA 3.1 μM, no antagonist
  Percent inhibition of cell growth by Chloro-IB-MECA: 70%
H929 cells
  Synergy score with dexamethasone, H929: 5.29
